Results on one compound are retold here after patent US20220073496A1, “NOVEL QUINOLINE DERIVATIVE INHIBITOR” (Nanjing Transthera Biosciences Co., Ltd., priority 2018, published 2022).

Data set [1] is described as follows: Stability in liver microsome of mice. It is filed as in vitro ADME. As to conditions: liver microsomes; Mouse liver microsome 0.5 mg protein/mL, compound 1 μM, 37° C. The procedure:
(§1) Assay 1: Stability assessment of the compounds of the present invention in liver microsome of mice and dogs
(§2) Test substances: the compounds of the present invention, wherein the structures and preparations thereof were as described above.
(§3) The composition of the incubation system:
(§4) Preparation of Test Substances:
(§5) An appropriate amount of the compound was accurately weighed and dissolved in DMSO to prepare a 5.0 mM stock solution. The 5.0 mM stock solution was diluted to 1.0 mM with DMSO, and finally diluted with water to a 10 μM test substance working solution for use (the DMSO content in the reaction system was 0.1%).
(§6) (1) The liver microsome (20 mg protein/mL) was taken out from the −80° C. refrigerator, pre-incubated at 37° C. with a water-bathing constant temperature vibrator for 3 minutes, and melted for use.
(§7) (2) A mixed solution of the incubation system (excluding compounds and β-NADPH) according to the above “composition of the incubation system” for the assay was prepared, and pre-incubated at 37° C. with a water-bathing constant temperature vibrator for 2 minutes.
(§8) (3) Control group (excluding β-NADPH): 30 μL of water and 30 μL of compound working solution (10 μM) were added to 240 μL of the mixed solution of the incubation system of step (2), and vortexed for 30 seconds to mix well. The total reaction volume was 300 μL. A duplicate sample was prepared. The sample was incubated at 37° C. with a water-bathing constant temperature vibrator. The timekeeping began and the sampling time points were set at 0 minute and 60 minutes.
(§9) (4) Sample group: 70 μL of β-NADPH solution (10 mM) and 70 μL of compound working solution (10 μM) were added to 560 μL of the mixed solution of step (2). The total reaction volume was 700 μL. The resulting mixture was vortexed for 30 seconds to mix well. A duplicate sample was prepared. The sample was incubated at 37° C. with a water-bathing constant temperature vibrator. The timekeeping began and the sampling time points were set at 0 minute, 5 minutes, 10 minutes, 20 minutes, 30 minutes, and 60 minutes after timekeeping.
(§10) (5) After vortexing for 3 minutes, the sample was centrifuged at 4000 rpm for 10 minutes.
(§11) (6) 50 μL of the supernatant was taken and 150 μL of water was added. The resulting mixture was vortexed to mix well, and analyzed by LC/MS/MS.
(§12) The half-life (t1/2) and clearance rate (Cl) were calculated using the following first-order kinetic formula:
(§13) Vd=1/protein content in liver microsome
(§14) Note: k was the slope of the logarithm of the remaining amount of the compound versus time, and Vd was the apparent distribution volume.
For orientation: Liver microsomes are vesicles of endoplasmic reticulum, rich in cytochrome P450 enzymes.

For data set [2], the target named is T1, H1299 cell pAxl (Homo sapiens, UniProt P30530).
T1 construct: endogenous in cells; host or cells: H1299
T1 sequence (P30530 26-894): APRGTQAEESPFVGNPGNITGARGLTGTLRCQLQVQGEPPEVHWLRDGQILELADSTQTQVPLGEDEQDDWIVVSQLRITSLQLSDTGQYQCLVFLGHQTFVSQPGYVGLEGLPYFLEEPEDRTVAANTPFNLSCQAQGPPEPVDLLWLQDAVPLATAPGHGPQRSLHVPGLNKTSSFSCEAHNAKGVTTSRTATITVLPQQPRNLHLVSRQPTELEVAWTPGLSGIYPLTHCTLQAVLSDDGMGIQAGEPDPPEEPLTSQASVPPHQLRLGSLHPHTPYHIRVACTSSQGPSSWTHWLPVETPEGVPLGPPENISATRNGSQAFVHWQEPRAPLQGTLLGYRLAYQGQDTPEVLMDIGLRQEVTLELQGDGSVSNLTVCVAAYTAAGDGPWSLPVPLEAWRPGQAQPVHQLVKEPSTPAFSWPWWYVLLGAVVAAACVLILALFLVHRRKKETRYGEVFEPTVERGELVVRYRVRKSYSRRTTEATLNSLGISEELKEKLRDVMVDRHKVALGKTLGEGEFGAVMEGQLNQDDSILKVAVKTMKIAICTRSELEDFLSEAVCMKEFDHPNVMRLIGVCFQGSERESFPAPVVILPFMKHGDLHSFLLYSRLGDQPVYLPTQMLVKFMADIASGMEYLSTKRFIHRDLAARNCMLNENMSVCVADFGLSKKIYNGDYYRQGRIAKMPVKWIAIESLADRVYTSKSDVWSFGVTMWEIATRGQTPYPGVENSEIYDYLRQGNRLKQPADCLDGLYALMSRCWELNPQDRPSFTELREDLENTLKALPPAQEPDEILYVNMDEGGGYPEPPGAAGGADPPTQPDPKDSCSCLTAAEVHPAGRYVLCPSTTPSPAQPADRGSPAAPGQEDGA
Briefly: Inhibitory activity on the cell pAxl (Western Blot). It is filed as cell-based. As to conditions: H1299 cells, compound 1.1, 3.3, 10, 30 nM, hGAS6 200 ng/mL. Here is the method: Assay 5: Test for Inhibitory Activities of the Compounds of the Present Invention on the Cell pAxl
H1299 is a non-small cell lung cancer cell.
Test substances: the compounds of the present invention, wherein the structures thereof were as described above.
Test equipment: protein electrophoresis apparatus (manufactured by Bio Rad), transfer unit (manufactured by Bio Rad), exposure unit (manufactured by Tanon), CO2, cell incubator (manufactured by Thermo).
The H1299 cells were inoculated in a 6-well plate (containing 10% FBS 1640 medium, 5×10^5 cells per well), and adherent cells were cultivated at 37° C. in a 5% CO2 condition for 18 hours. The cells were starved overnight. Different concentrations of compounds were added. The final compound concentrations were 1.1, 3.3, 10, and 30 nM, and the final DMSO content was 1‰. The negative control wells contained the medium containing 1‰ DMSO. After incubating at 37° C. in a 5% CO2 condition for 60 minutes, hGAS6 (R&D, final concentration 200 ng/mL) was added to each well. After further incubating for 60 minutes, the cell total protein was extracted for Western Blot and the […] values were calculated using GraphPad 5.0 software. The inhibitory activity of the compound on the cell pAxl was examined.
On the technique in general: A western blot detects proteins with antibodies after separation by electrophoresis.

A short description of data set [3]: Stability in liver microsome of dogs. As to conditions: liver microsomes; Dog liver microsome 0.5 mg protein/mL, compound 1 μM, 37° C. It is filed as in vitro ADME. The procedure:
as §1, §2, §3, §4, §5, §6, §7, §8, §9, §10, §11, §12, §13, §14

As to `COc1cc2nccc(Oc3ncc(NC(=O)c4cn(C5CC5)nc(-c5ccc(F)cc5)c4=O)cn3)c2cc1OC` [Compound 44, 2-cyclopropyl-N-(2-((6,7-dimethoxyquinolin-4-yl)oxy)pyrimidine-5-yl)-6-para-fluorophenyl-5-oxo-2,5-dihydropyridazine-4-carboxamide], the half-life (usually how long it takes for the measured level to halve) at 1 μM came out at 2.13 h in data set [1] and 3.73 h in data set [3]. The intrinsic clearance (microsomal CLint) – broadly, the capacity of the preparation to metabolise the compound, expressed as a volume cleared per time – at 1 μM came out at 10.8 µL/min/mg in data set [1] and 6.2 µL/min/mg in data set [3]. Moreover, the 50% inhibitory concentration (IC50) – broadly, the concentration needed to halve the response being measured – in data set [2] was in the range of 3.3 to 10 nM.
